Like-named read-outs stand apart in the source and are kept apart here.
Key:
Assay type in all cases: cell-based
CALU-1 = assay: Cell growth inhibition (CellTiter-Glo), NSCLC line CALU-1; conditions: CALU-1 non-small cell lung cancer cell line, 4 days
Description: (§1) Cell growth inhibitory activity of representative BET bromodomain degraders in representative non-small cell lung cancer cell lines was determined using the CellTiter-Glo® Luminescent Cell Viability Assay. Cells were seeded in 384-well white opaque cell culture plates at a density of 2,000 cells/well with serially diluted compounds and incubated at 37° C. in an atmosphere of 95% air and 5% CO2 for 4 days. Cell viability was determined using the CellTiter-Glo® Luminescent Cell Viability Assay Kit (Promega, Madison, Wis.) according to the manufacture's instruction. Briefly, a volume of CellTiter-Glo® Reagent equal to the volume of cell culture medium was added to each well, and then the plates were incubated at room temperature for 10-20 minutes. The luminescent signal was measured using a Tecan Infinite M1000 multimode microplate reader (Tecan, Morrisville, N.C.). The half maximal inhibitory concentration (IC50) was calculated using the GraphPad Prism 5 software (GraphPad Software, La Jolla, Calif.). Cpd. A is a BET bromodomain inhibitor, see U.S. Appl.

SKLU-1 = assay: Cell growth inhibition (CellTiter-Glo), NSCLC line SKLU-1; conditions: SKLU-1 non-small cell lung cancer cell line, 4 days
Description: as §1

H520 = assay: Cell growth inhibition (CellTiter-Glo), NSCLC line H520; conditions: H520 non-small cell lung cancer cell line, 4 days
Description: as §1

CALU6 = assay: Cell growth inhibition (CellTiter-Glo), NSCLC line CALU6; conditions: CALU6 non-small cell lung cancer cell line, 4 days
Description: as §1

H2009 = assay: Cell growth inhibition (CellTiter-Glo), NSCLC line H2009; conditions: H2009 non-small cell lung cancer cell line, 4 days
Description: as §1

H1299 = assay: Cell growth inhibition (CellTiter-Glo), NSCLC line H1299; conditions: H1299 non-small cell lung cancer cell line, 4 days
Description: as §1

H2030 = assay: Cell growth inhibition (CellTiter-Glo), NSCLC line H2030; conditions: H2030 non-small cell lung cancer cell line, 4 days
Description: as §1

H2228 = assay: Cell growth inhibition (CellTiter-Glo), NSCLC line H2228; conditions: H2228 non-small cell lung cancer cell line, 4 days
Description: as §1

H647 = assay: Cell growth inhibition (CellTiter-Glo), NSCLC line H647; conditions: H647 non-small cell lung cancer cell line, 4 days
Description: as §1

MDA-MB-157 = assay: Cell growth inhibition (CellTiter-Glo), breast cancer line MDA-MB-157; conditions: MDA-MB-157 breast cancer cell line, 4 days
Description: (§2) Cell growth inhibitory activity of representative BET bromodomain degraders in representative breast cancer cell lines was determined using the CellTiter-Glo® Luminescent Cell Viability Assay. SUM-52 and SUM-159 cell lines were established at the University of Michigan Comprehensive Cancer Center. All the other breast cancer cell lines were obtained from the ATCC (Manassas, Va.). Cells were seeded in 384-well cell culture plates at a density of 1,000-2,500 cells/well with serially diluted compounds and incubated at 37° C. in an atmosphere of 95% air and 5% CO2 for 4 days. Cell viability was determined using the CellTiter-Glo® Luminescent Cell Viability Assay Kit (Promega, Madison, Wis.) according to the manufacture's instruction. Briefly, a volume of CellTiter-Glo® Reagent equal to the volume of cell culture medium was added to each well, and then the plates were incubated at room temperature for 20-60 minutes. The luminescent signal was measured using a Tecan Infinite M1000 multimode microplate reader (Tecan, Morrisville, N.C.). The half maximal inhibitory concentration (IC50) was calculated using the GraphPad Prism 5 software (GraphPad Software, La Jolla, Calif.). “Thd” is thalidomide.

HCC1187 = assay: Cell growth inhibition (CellTiter-Glo), breast cancer line HCC1187; conditions: 4 days
Description: as §2

HCC38 = assay: Cell growth inhibition (CellTiter-Glo), breast cancer line HCC38; conditions: 4 days
Description: as §2

HCC1954 = assay: Cell growth inhibition (CellTiter-Glo), breast cancer line HCC1954; conditions: 4 days
Description: as §2

HCC70 = assay: Cell growth inhibition (CellTiter-Glo), breast cancer line HCC70; conditions: 4 days
Description: as §2

HCC1395 = assay: Cell growth inhibition (CellTiter-Glo), breast cancer line HCC1395; conditions: 4 days
Description: as §2

SKCO-1 = assay: Cell growth inhibition (CellTiter-Glo), colon cancer line SKCO-1; conditions: SKCO-1 colon cancer cell line
Description: as §1, with “Appl. No. 62/121,637, having the following structure:” for “Appl.”
(§3) Cell growth inhibitory activity of representative BET bromodomain degraders in representative colon cancer cell lines, see Table 7, was determined as described in Example 17.

SW620 = assay: Cell growth inhibition (CellTiter-Glo), colon cancer line SW620
Description: as §1, with “Appl. No. 62/121,637, having the following structure:” for “Appl.”
as §3

SW480 = assay: Cell growth inhibition (CellTiter-Glo), colon cancer line SW480
Description: as §1, with “Appl. No. 62/121,637, having the following structure:” for “Appl.”
as §3

HT-29 = assay: Cell growth inhibition (CellTiter-Glo), colon cancer line HT-29; conditions: HT-29 colon cancer cell line
Description: as §1, with “Appl. No. 62/121,637, having the following structure:” for “Appl.”
as §3

HCT116 = assay: Cell growth inhibition (CellTiter-Glo), colon cancer line HCT116
Description: as §1, with “Appl. No. 62/121,637, having the following structure:” for “Appl.”
as §3

SW837 = assay: Cell growth inhibition (CellTiter-Glo), colon cancer line SW837
Description: as §1, with “Appl. No. 62/121,637, having the following structure:” for “Appl.”
as §3

SW1463 = assay: Cell growth inhibition (CellTiter-Glo), colon cancer line SW1463
Description: as §1, with “Appl. No. 62/121,637, having the following structure:” for “Appl.”
as §3

T84 = assay: Cell growth inhibition (CellTiter-Glo), colon cancer line T84
Description: as §1, with “Appl. No. 62/121,637, having the following structure:” for “Appl.”
as §3

LS123 = assay: Cell growth inhibition (CellTiter-Glo), colon cancer line LS123
Description: as §1, with “Appl. No. 62/121,637, having the following structure:” for “Appl.”
as §3

## CCn1nc(C2CC2)cc1Nc1nc(COC)nc2[nH]c3cc(-c4c(C)noc4C)c(OC)cc3c12 [Cpd. A, reference compound]
CALU-1; Homo sapiens, 96 h
  IC50: 2520 nM
SKLU-1; Homo sapiens, SK-LU-1, 96 h
  IC50: 40 nM
H520; Homo sapiens, NCI-H520, 96 h
  IC50: 280 nM
CALU6; Homo sapiens, Calu-6, 96 h
  IC50: 630 nM
H2009; Homo sapiens, NCI-H2009, 96 h
  IC50: 170 nM
H1299; Homo sapiens, NCI-H1299, 96 h
  IC50: 60 nM
H2030; Homo sapiens, NCI-H2030, 96 h
  IC50: 110 nM
H2228; Homo sapiens, NCI-H2228, 96 h
  IC50: 2400 nM
H647; Homo sapiens, NCI-H647, 96 h
  IC50: 80 nM
MDA-MB-157; Homo sapiens, 96 h
  IC50: 860 nM
HCC1187; Homo sapiens, 96 h
  IC50: 960 nM
HCC38; Homo sapiens, 96 h
  IC50: 60 nM
HCC1954; Homo sapiens, 96 h
  IC50: 1620 nM
HCC70; Homo sapiens, 96 h
  IC50: 580 nM
HCC1395; Homo sapiens, 96 h
  IC50: 1050 nM
SKCO-1; Homo sapiens, SK-CO-1
  IC50: 1080 ± 240 nM
SW620; Homo sapiens, SW-620
  IC50: > 2500 nM
SW480; Homo sapiens
  IC50: 567 ± 10 nM
HT-29; Homo sapiens
  IC50: 69 ± 1 nM
HCT116; Homo sapiens, HCT-116
  IC50: 1160 ± 179 nM
SW837; Homo sapiens
  IC50: 84 ± 20 nM
SW1463; Homo sapiens
  IC50: > 2500 nM
T84; Homo sapiens
  IC50: 413 ± 100 nM
LS123; Homo sapiens, LS-123
  IC50: 739 ± 680 nM

## CCn1nc(C2CC2)cc1Nc1nc(C(=O)NCCCOCCOCCOCCCNc2cccc3c2C(=O)N(C2CCC(=O)NC2=O)C3=O)nc2[nH]c3cc(-c4c(C)noc4C)c(OC)cc3c12 (stereo not drawn) [Cpd. No. 4]
CALU-1; Homo sapiens, 96 h
  IC50: 2 nM
SKLU-1; Homo sapiens, SK-LU-1, 96 h
  IC50: 3 nM
H520; Homo sapiens, NCI-H520, 96 h
  IC50: 3 nM
CALU6; Homo sapiens, Calu-6, 96 h
  IC50: 9 nM
H2009; Homo sapiens, NCI-H2009, 96 h
  IC50: 16 nM
H1299; Homo sapiens, NCI-H1299, 96 h
  IC50: 69 nM
H2030; Homo sapiens, NCI-H2030, 96 h
  IC50: 137 nM
H2228; Homo sapiens, NCI-H2228, 96 h
  IC50: 174 nM
H647; Homo sapiens, NCI-H647, 96 h
  IC50: 598 nM
MDA-MB-157; Homo sapiens, 96 h
  IC50: 2 nM
HCC1187; Homo sapiens, 96 h
  IC50: 3 nM
HCC38; Homo sapiens, 96 h
  IC50: 4 nM
HCC1954; Homo sapiens, 96 h
  IC50: 4 nM
HCC70; Homo sapiens, 96 h
  IC50: 35 nM
HCC1395; Homo sapiens, 96 h
  IC50: 277 nM
SKCO-1; Homo sapiens, SK-CO-1
  IC50: 8 ± 4 nM
SW620; Homo sapiens, SW-620
  IC50: 38 ± 5 nM
SW480; Homo sapiens
  IC50: 37 ± 10 nM
HT-29; Homo sapiens
  IC50: 32 ± 20 nM
HCT116; Homo sapiens, HCT-116
  IC50: 130 ± 30 nM
SW837; Homo sapiens
  IC50: 76 ± 30 nM
SW1463; Homo sapiens
  IC50: 31 ± 10 nM
T84; Homo sapiens
  IC50: 110 ± 30 nM
LS123; Homo sapiens, LS-123
  IC50: 11 ± 10 nM

## CCn1nc(C2CC2)cc1Nc1nc(C(=O)NCCCCNc2cccc3c2C(=O)N(C2CCC(=O)NC2=O)C3=O)nc2[nH]c3cc(-c4c(C)noc4C)c(OC)cc3c12 (stereo not drawn) [Cpd. No. 9]
CALU-1; Homo sapiens, 96 h
  IC50: 9 nM
SKLU-1; Homo sapiens, SK-LU-1, 96 h
  IC50: 11 nM
H520; Homo sapiens, NCI-H520, 96 h
  IC50: 11 nM
CALU6; Homo sapiens, Calu-6, 96 h
  IC50: 33 nM
H2009; Homo sapiens, NCI-H2009, 96 h
  IC50: 34 nM
H1299; Homo sapiens, NCI-H1299, 96 h
  IC50: 228 nM
H2030; Homo sapiens, NCI-H2030, 96 h
  IC50: 269 nM
H2228; Homo sapiens, NCI-H2228, 96 h
  IC50: 610 nM
H647; Homo sapiens, NCI-H647, 96 h
  IC50: 789 nM
SKCO-1; Homo sapiens, SK-CO-1
  IC50: 23 ± 10 nM
SW620; Homo sapiens, SW-620
  IC50: 1040 ± 1040 nM
SW480; Homo sapiens
  IC50: 247 ± 60 nM
HT-29; Homo sapiens
  IC50: 48 ± 2 nM
HCT116; Homo sapiens, HCT-116
  IC50: 585 ± 70 nM
SW837; Homo sapiens
  IC50: 230 ± 67 nM
SW1463; Homo sapiens
  IC50: 191 ± 30 nM
T84; Homo sapiens
  IC50: 690 ± 300 nM
LS123; Homo sapiens, LS-123
  IC50: 74 ± 50 nM

## Cc1sc2c(c1C)C(c1ccc(Cl)cc1)=N[C@@H](CC(=O)NCCCCNC(=O)COc1cccc3c1C(=O)N(C1CCC(=O)NC1=O)C3=O)c1nnc(C)n1-2 (stereo partly drawn) [dBET1, reference compound]
CALU-1
  IC50: 3100 nM
SKLU-1
  IC50: > 5000 nM
H520
  IC50: 4200 nM
CALU6
  IC50: > 5000 nM
H2009
  IC50: > 5000 nM
H1299
  IC50: > 5000 nM
H2030
  IC50: > 5000 nM
H2228
  IC50: > 5000 nM
H647
  IC50: > 5000 nM
MDA-MB-157
  IC50: 1170 nM
HCC1187
  IC50: > 5000 nM
HCC38
  IC50: 3700 nM
HCC1954
  IC50: 3760 nM
HCC70
  IC50: > 5000 nM
HCC1395
  IC50: > 5000 nM
SKCO-1
  IC50: > 5000 nM
SW620
  IC50: > 5000 nM
SW480
  IC50: > 5000 nM
HT-29
  IC50: > 5000 nM
HCT116
  IC50: > 5000 nM
SW837
  IC50: > 5000 nM
SW1463
  IC50: 2730 ± 300 nM
T84
  IC50: > 5000 nM
LS123
  IC50: > 5000 nM

Reference: patent US10633386B2, “BET protein degraders” (THE REGENTS OF THE UNIVERSITY OF MICHIGAN, priority 2016, dated 2020)
